Reference: patent US20080194585A1, “Fungicidal Pyrazine Derivatives” (priority 2005, published 2008)
Marks after values point to notes of the source that are not given here.

Experiments:
Plasmopara viticola = assay: Test D: grape downy mildew, spray after inoculation of grape seedlings; type: in vivo; settings: 40 ppm (*)
Source text: Upon removal, disease ratings were made. […] A dash (-) indicates no test results.

Phytophthora infestans = assay: whole plant or invertebrate; type: in vivo; settings: 40 ppm (*)
Septoria tritici = assay: Test J: wheat leaf blotch, preventive spray on wheat seedlings; type: in vivo
Source text: A dash (-) indicates no test results.

fusarium graminearium = assay: Test I: wheat head scab, preventive spray on wheat seedlings; settings: 40 ppm (*)
Procedure: (the causal agent of wheat head scab) and incubated in a saturated atmosphere at 20° C. for 72 h, and then moved to a growth chamber at 22° C. for 5 days, after which disease ratings were made.

[1] = test system: Puccinia recondita f. sp. tritici; assay: Test K: wheat leaf rust, preventive spray on wheat seedlings; settings: 40 ppm (*)
Botrytis cinerea = assay: Test E: tomato botrytis, preventive spray on tomato seedlings; settings: 40 ppm (*)
Septoria nodorum = assay: Test H: wheat glum blotch, preventive spray on wheat seedlings; settings: 40 ppm (*)
Procedure: (the causal agent of wheat glum blotch) and incubated in a saturated atmosphere at 20° C. for 48 h, and then moved to a growth chamber at 22° C. for 5 days, after which disease ratings were made.

[2] = test system: Erysiphe graminis f. sp. tritici; assay: Test L: wheat powdery mildew, preventive spray on wheat seedlings; settings: 40 ppm (*)
Sclerotinia sclerotiorum = assay: Test C: cucumber white mold, preventive spray on cucumber seedlings; settings: 40 ppm (*)
Pythium aphanidermatum = assay: Test A: bluegrass pythium blight, preventive spray on bluegrass seedlings; settings: 40 ppm (*)
Rhizoctonia oryzae = assay: Test G: turf brown patch, preventive spray on creeping bent grass seedlings; settings: 40 ppm (*)
Procedure: (the causal agent of turf brown patch) and incubated in a saturated atmosphere at 27° C. for 24 h, and then moved to a growth chamber at 27° C. for 5 days, after which disease ratings were made.

[3] = test system: Colletotrichum orbiculare; assay: Test B: cucumber Colletotrichum anthracnose, preventive spray on cucumber seedlings; settings: 40 ppm (*)

SMILES | Test D disease control rating (Plasmopara viticola) | Test F disease control rating (Phytophthora infestans) | Test J disease control rating (Septoria tritici; 40 ppm (*)) | Test I disease control rating (fusarium graminearium) | Test K disease control rating [1] | Test E disease control rating (Botrytis cinerea) | Test H disease control rating (Septoria nodorum) | Test L disease control rating [2] | Test C disease control rating (Sclerotinia sclerotiorum) | Test A disease control rating (Pythium aphanidermatum) | Test G disease control rating (Rhizoctonia oryzae) | Test B disease control rating [3] | Test J disease control rating (Septoria tritici; 200 ppm)
O=c1c(-n2cccn2)nc(Cl)c(-c2c(F)cccc2F)n1CCCl [compound 124] | 0* % | 0* % | 100* % | 0* % | 100* % | 99* % | 100* % | 0* % | 0* % | 0* % | 21* % | 0* % | 
O=c1c(-n2cncn2)nc(Cl)c(-c2c(F)cccc2F)n1CCCl [compound 125] | 0* % | 0* % | 71* % | 0* % | 55* % | 0* % | 0* % | 0* % | 0* % | 0* % | 0* % | 0* % | 
CS(=O)(=O)CCn1c(-c2c(F)cccc2F)c(Cl)nc(-n2cccn2)c1=O [compound 126] | 0* % | 0* % | 19* % | 0* % | 0* % | 0* % | 0* % | 0* % | 0* % | 0* % | 0* % | 0* % | 
CS(=O)(=O)CCn1c(-c2c(F)cccc2F)c(Cl)nc(-n2cncn2)c1=O [compound 127] | 0* % | 0* % |  | 0* % | 0* % | 0* % | 0* % | 0* % | 0* % | 0* % | 0* % | 0* % | 16%
CC(C)Cn1c(Cc2ccccc2)c(Cl)nc(-n2cncn2)c1=O [compound 128] | 0* % | 0* % | 0* % | 0* % | 0* % | 0* % | 0* % | 0* % | 0* % | 0* % | 0* % | 0* % | 
CC(C)Cn1c(-c2cccc3ccccc23)c(Cl)nc(-n2cncn2)c1=O [compound 129] | 0* % | 0* % | 19* % | 0* % | 0* % | 0* % | 0* % | 0* % | 0* % | 0* % | 0* % | 0* % | 
CC(C)Cn1c(Cc2ccccc2)c(Cl)nc(-n2cccn2)c1=O [compound 130] | 0* % | 0* % | 16* % | 0* % | 0* % | 0* % | 0* % | 0* % | 0* % | 0* % | 0* % | 0* % | 
CC(C)Cn1c(-c2cccc3ccccc23)c(Cl)nc(-n2cccn2)c1=O [compound 131] | 0* % | 0* % | 52* % | 0* % | 0* % | 0* % | 0* % | 0* % | 0* % | 0* % | 0* % | 0* % | 
CC(C)Cn1c(C(C)c2ccccc2)c(Cl)nc(-n2cccn2)c1=O (stereo not drawn) [compound 132] | 0* % | 0* % | 9* % | 0* % | 0* % | 0* % | 0* % | 0* % | 0* % | 0* % | 0* % | 0* % | 
CC(C)Cn1c(C(C)c2ccccc2)c(Cl)nc(-n2cncn2)c1=O (stereo not drawn) [compound 133] | 0* % | 0* % | 23* % | 0* % | 0* % | 0* % | 0* % | 0* % | 0* % | 0* % | 0* % | 0* % | 
CC(C)Cn1c(-c2cc(F)cc(F)c2F)c(Cl)nc(-n2cccn2)c1=O [compound 139] | 0* % | 0* % | 100* % | 0* % | 99* % | 100* % | 97* % | 99* % | 95* % | 0* % | 91* % | 0* % | 
COC(=O)c1ccc(-c2c(Cl)nc(-n3cncn3)c(=O)n2CC(C)C)cc1 [compound 146] | 0* % | 0* % | 5* % | 0* % | 0* % | 0* % | 0* % | 0* % | 0* % | 0* % | 0* % | 0* % | 
